75 molecules from PubChem BioAssay AID1996 can be followed below.

≈ marks a conversion by molar mass, not a printed value.

For this series the following is noted: buffer; pH 7.4; 200.0 µM.
For orientation: solubility (kinetic) means the concentration staying in solution when a stock, usually in DMSO, is diluted into the medium. The molecule `CC(=O)Nc1ccc(NC(=O)C(c2ccccc2)c2ccccc2)cc1` had a solubility (kinetic) of 0.8 µg/mL (≈ 2.32 µM).

On to `COC(=O)[C@H](C)NC(=O)Nc1cccc(Br)c1`, for which the kinetic solubility was greater than 45.2 µg/mL.

As for `O=C(Nc1ccccc1)c1ccc(OC(=O)c2ccccc2)cc1`, the solubility (kinetic) was less than 0.7 µg/mL.

The molecule `Cc1ccc(C(=O)NC2CCCCNC2=O)cc1` (stereo not given) returned a kinetic solubility of 33.3 µg/mL (≈ 135 µM).

Regarding `Nc1nc(SCC(=O)O)[nH]c(=O)c1NC(=O)c1ccco1`, the kinetic solubility was greater than 46.5 µg/mL.

`COc1ccc(NC(=O)CCc2ccc(OC)c(OC)c2)cn1` gave a kinetic solubility greater than 47.5 µg/mL.

`Cc1ccccc1C(=O)NC(=S)N(C)C1CCCCC1` registered a kinetic solubility of 41.4 µg/mL (≈ 143 µM).

The molecule `COc1ccccc1N1CCNC(C)C1=O.Cl` (stereo not given) registered a solubility (kinetic) of 33.4 µg/mL.

`c1coc(CN2CNc3nc4ccccc4n3C2)c1` registered a kinetic solubility of 35.2 µg/mL (≈ 138 µM).

`COc1ccc(S(=O)(=O)N2CCc3ccccc32)cc1C(=O)NCCc1ccc(S(N)(=O)=O)cc1` showed a solubility (kinetic) of 3.7 µg/mL (≈ 7.18 µM).

Consider `Nc1nc(-c2ccc3c(c2)CCCC3)c(CC(=O)O)s1`, for which the kinetic solubility was 42.3 µg/mL (≈ 147 µM).

In turn, `Cc1[nH]c(=O)[nH]c(=O)c1S(=O)(=O)Nc1ccc(F)c([N+](=O)[O-])c1` displayed a solubility (kinetic) greater than 51.6 µg/mL.

`COc1ccccc1C(=O)NCc1ccccn1` registered a kinetic solubility greater than 36.3 µg/mL.

In turn, `Cc1nn(C)cc1C(C)Nc1nc2nonc2nc1N1CCCCC1` (stereo not given) came in with a kinetic solubility greater than 51.4 µg/mL.

With `Oc1c(C=Nc2cccc3nsnc23)ccc2ccccc12`, the kinetic solubility is 19.3 µg/mL (≈ 63.2 µM).

In turn, `FC(F)(F)c1ccccc1CN1CCC(Cc2ccccc2)CC1` gave a kinetic solubility of less than 0.7 µg/mL.

`Cc1cccc(C)c1NC(=O)C1CSC2(C)CCC(=O)N12` (stereo not given) showed a solubility (kinetic) greater than 45.7 µg/mL.

`NC(=O)COC(=O)CC12CC3CC(CC(Br)(C3)C1)C2` displayed a solubility (kinetic) greater than 49.5 µg/mL.

Turning to `CNC(=O)c1cc(S(=O)(=O)NCc2ccncc2)ccc1OC`, the kinetic solubility was greater than 50.3 µg/mL.

`COc1cccc(N2CCN(C(=S)Nc3ccc(C)cc3C)CC2)c1`: the solubility (kinetic) was found to be 0.6 µg/mL (≈ 1.69 µM).

Molecule `Cc1nc(Nc2ccccc2F)c2oc3ccccc3c2n1` came in with a kinetic solubility of 0.3 µg/mL (≈ 1.02 µM).

Regarding `CCC(=O)N1c2ccccc2C(N(C(=O)CC)c2ccccc2)CC1C` (stereo not given), the kinetic solubility was greater than 52.6 µg/mL.

For the molecule `Nc1ncc(S(=O)(=O)c2ccc(Cl)cc2)c(N)n1`, the kinetic solubility worked out at 31.4 µg/mL (≈ 110 µM).

`O=C(NCc1cccnc1)c1cc(C(=O)C2CC2)c[nH]1` showed a kinetic solubility greater than 40.4 µg/mL.

Turning to `CC(=O)Nc1ccc(NC(=O)c2cc(=O)c3cc(C)c(C)cc3o2)cc1`, the kinetic solubility is 0.6 µg/mL (≈ 1.71 µM).

`Cn1c(N)c(C(=O)Nc2ccccc2F)sc1=S` yielded a kinetic solubility of 4.4 µg/mL (≈ 15.5 µM).

`CCc1cccc(NC(=O)CCCCCC2NC(=O)NC2C)c1` (stereo not given) had a solubility (kinetic) greater than 47.6 µg/mL.

`COc1cccc(COC(=O)C2CCN(C(=O)c3ccccc3C)CC2)c1OC` showed a kinetic solubility greater than 59.6 µg/mL.

The molecule `CCOc1ccccc1NC(=O)CCNC(=O)c1ccco1` returned a kinetic solubility of 42.6 µg/mL (≈ 141 µM).

`CC1CC(C)CN(C(=O)Nc2ccccc2F)C1` (stereo not given) came in with a solubility (kinetic) of 15 µg/mL (≈ 59.9 µM).

In the case of `CCC1CC(C(=O)Nc2ccccc2)C(=O)O1` (stereo not given), the kinetic solubility is greater than 35 µg/mL.

`CCc1ccc(NC(=O)C(=O)NCC2CCCO2)cc1` (stereo not given) registered a kinetic solubility of 18.5 µg/mL (≈ 66.9 µM).

Molecule `CC1CCCCC1NC(=O)COC(=O)c1cc(=O)c2ccccc2o1` (stereo not given) came in with a kinetic solubility greater than 51.5 µg/mL.

Consider `CCCCOP(=O)(c1ccc(N(C)C)cc1)C(O)c1ccc(N(C)C)cc1` (stereo not given), for which the solubility (kinetic) was greater than 58.6 µg/mL.

As to `Cc1ccc(C(C)NC(=O)c2ccncc2)c(C)c1` (stereo not given), the kinetic solubility was greater than 38.1 µg/mL.

The molecule `C/C(=N\Nc1ccccc1C(=O)O)c1ccncc1` showed a kinetic solubility greater than 38.3 µg/mL.

For `N#C/C(=C\c1ccncc1)C(=O)Nc1ccc(C(=O)O)cc1`, the solubility (kinetic) was greater than 44 µg/mL.

In turn, `Cc1nn(C(=O)/C(C#N)=C/N(C)C)c(C)c1C` returned a kinetic solubility greater than 34.8 µg/mL.

`O=C(CC(=O)Nc1nc(C23CC4CC(CC(C4)C2)C3)cs1)NCCO` gave a solubility (kinetic) of 50.8 µg/mL (≈ 140 µM).

For the molecule `Cn1ccnc1SCC(=O)c1ccc(F)cc1`, the kinetic solubility turned out to be 32.3 µg/mL (≈ 129 µM).

Regarding `Cc1ccc(S(=O)(=O)CCN2CCN(c3ccccc3)CC2)cc1`, the kinetic solubility was 45.7 µg/mL (≈ 133 µM).

On to `CC(Cc1c[nH]c2ccccc12)NC(=O)OCCCl` (stereo not given), for which the kinetic solubility was greater than 42.1 µg/mL.

On to `CC1CCN(C(=O)C(C)Cl)CC1` (stereo not given), for which the kinetic solubility turned out to be 11.1 µg/mL (≈ 58.5 µM).

For the molecule `CN=c1sc(C(=O)Nc2ccccc2)c(C)n1C`, the kinetic solubility came out at 35.3 µg/mL (≈ 135 µM).

Molecule `O=C(Nc1ccncc1)c1cccc2ccccc12` showed a kinetic solubility greater than 37.2 µg/mL.

As for `COc1ccc(NC2=C(NC(C)=O)C(=O)c3ccccc3C2=O)cc1`, the kinetic solubility was 49.5 µg/mL (≈ 147 µM).

In the case of `O=C(Nc1nc2ccccc2[nH]1)Nc1ccccc1F`, the kinetic solubility was 3.3 µg/mL (≈ 12.2 µM).

Molecule `Cc1ccc(-c2nc(C=Nc3ccccc3)c(O)o2)cc1` registered a kinetic solubility of 4.7 µg/mL (≈ 16.9 µM).

Turning to `Cc1ccc(NC(=O)Cn2cc([N+](=O)[O-])nc2C)cc1C`, the kinetic solubility came out at 14.8 µg/mL (≈ 51.3 µM).

Turning to `Cc1ccc(S(=O)(=O)N2CCN(C(=O)CNC(=O)c3ccc(Cl)cc3)CC2)cc1`, the solubility (kinetic) worked out at 8.1 µg/mL (≈ 18.6 µM).

For `COc1ccc(C2c3ccsc3CCN2C(=O)C(C)(C)C)cc1` (stereo not given), the kinetic solubility came to 14.9 µg/mL (≈ 45.2 µM).

Turning to `Cl.O=C(COc1ccc(F)cc1)NCCN1CCCC1`, the kinetic solubility was greater than 45.4 µg/mL.

In turn, `O=C(NCCCNC(=O)c1ccccc1F)c1ccco1` yielded a solubility (kinetic) of 43.4 µg/mL (≈ 150 µM).

`CCNC(=O)N1CCC(c2nc3ccccc3s2)CC1` yielded a solubility (kinetic) greater than 43.4 µg/mL.

`Cc1ccc(C23CC4CC(CC(C(=O)N(C)C)(C4)C2)C3)cc1` yielded a solubility (kinetic) of 2.4 µg/mL (≈ 8.07 µM).

With `Cc1ccc(OCc2ccc([N+](=O)[O-])cc2)c([N+](=O)[O-])n1`, the solubility (kinetic) was determined as 1.1 µg/mL (≈ 3.8 µM).

In turn, `CN(C(=O)CSc1nnnn1C)C1(C#N)CCCCC1` displayed a solubility (kinetic) greater than 44.2 µg/mL.

The molecule `O=C1NC(=O)N(c2ccccc2)C(=O)/C1=C\c1ccccc1[N+](=O)[O-]` registered a solubility (kinetic) greater than 50.6 µg/mL.

`COC(=O)c1c(NC(=O)CCC(=O)O)sc(Cc2ccccc2)c1C` showed a kinetic solubility of 48.7 µg/mL (≈ 135 µM).

For `CC(=O)c1ccccc1NCC(=O)Nc1ccc(C)cc1`, the kinetic solubility is 11.2 µg/mL (≈ 39.7 µM).

In turn, `O=C(NCc1cccc(C(F)(F)F)c1)c1ccc2c(c1)OCO2` registered a kinetic solubility of 34.8 µg/mL (≈ 108 µM).

The molecule `COc1ccc(CN(C)C2CCN(C)CC2)cc1OC` yielded a kinetic solubility of 38.3 µg/mL (≈ 138 µM).

Consider `Cc1ccc(-c2nc(=O)[nH]c3ccc(Br)cc23)cc1`, for which the solubility (kinetic) was found to be 6.7 µg/mL (≈ 21.3 µM).

Consider `CCCc1cc(=O)[nH]c(SCC(=O)Nc2ccc(S(=O)(=O)N3CCCC3)cc2)n1`, for which the kinetic solubility came out at 29 µg/mL (≈ 66.4 µM).

Molecule `CCn1c(C)c(C(=O)c2ccccc2)c(C#N)c1C(=O)O` yielded a solubility (kinetic) of 36.6 µg/mL (≈ 130 µM).

The molecule `N#Cc1cccc(C#N)c1Oc1ccc(N)cc1` gave a kinetic solubility greater than 35.3 µg/mL.

Turning to `CCc1ccc(NS(=O)(=O)c2cccc3nsnc23)cc1`, the kinetic solubility was found to be 40.5 µg/mL (≈ 127 µM).

In turn, `N#C/C(=C\c1ccccc1)C(=O)Nc1cccnc1` gave a kinetic solubility of 18.3 µg/mL (≈ 73.4 µM).

Turning to `Cl.N[C@@H]1C[C@H]1c1ccccc1`, the kinetic solubility was greater than 25.4 µg/mL.

Take `S=C1NC2(CCCC2)Nc2ccccc21`: the kinetic solubility stood at 32.5 µg/mL (≈ 149 µM).

`Cn1c(N)c(C(=O)COC(=O)/C=C/c2ccccc2)c(=O)n(C)c1=O`: the kinetic solubility was found to be 11.6 µg/mL (≈ 33.8 µM).

For the molecule `Cc1ccc(NC(=O)CCNC(=O)c2ccc(Cl)cc2)cc1C`, the kinetic solubility was determined as 1.7 µg/mL (≈ 5.14 µM).

`COc1ccc(OC)c(NC(=O)c2nc(-c3ccccc3)oc2C)c1` registered a solubility (kinetic) of 3.1 µg/mL (≈ 9.16 µM).

`CC(C)(C)c1ccc(COn2ccnc2)cc1`: the kinetic solubility was 27.1 µg/mL (≈ 118 µM).

Consider `CC(C)(C)c1ccc(C(=O)N2CCC(C(=O)NC3CC3)CC2)cc1`, for which the kinetic solubility was 48 µg/mL (≈ 146 µM).
